The target of test [1] is T1, Membrane-associated tyrosine- and threonine-specific cdc2-inhibitory kinase (Homo sapiens) (UniProt Q99640).
T1 sequence (whole entry): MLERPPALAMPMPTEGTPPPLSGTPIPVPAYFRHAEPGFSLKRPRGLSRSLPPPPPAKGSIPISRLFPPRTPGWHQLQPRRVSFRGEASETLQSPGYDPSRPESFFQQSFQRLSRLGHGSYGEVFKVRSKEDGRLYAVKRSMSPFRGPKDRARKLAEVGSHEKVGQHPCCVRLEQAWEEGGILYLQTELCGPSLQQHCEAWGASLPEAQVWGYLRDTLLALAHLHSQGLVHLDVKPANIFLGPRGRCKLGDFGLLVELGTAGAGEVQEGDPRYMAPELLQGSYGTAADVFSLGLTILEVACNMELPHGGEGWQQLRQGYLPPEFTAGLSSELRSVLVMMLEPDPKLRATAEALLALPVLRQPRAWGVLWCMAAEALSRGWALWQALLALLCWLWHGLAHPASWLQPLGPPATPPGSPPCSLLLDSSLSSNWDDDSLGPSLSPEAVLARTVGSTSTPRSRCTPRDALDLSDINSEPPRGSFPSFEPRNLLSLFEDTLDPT
As to the kind of experiment: Activity at human Myt1 (75 to 362) expressed in Escherichia coli BL21 (DE3) cells assessed as Cdk1 phosphorylation at Thr14 at 10 uM after 30 mins by fluorescence polarization immunoassay.

For test [2], the target named is T1, Membrane-associated tyrosine- and threonine-specific cdc2-inhibitory kinase (Homo sapiens). Kind of test: Activity at human Myt1 (75 to 362) expressed in Escherichia coli BL21 (DE3) cells assessed as Cdk1 phosphorylation at Try15 at 10 uM after 30 mins by fluorescence polarization immunoassay.
The target is the same in test [3]. Kind of test: Activity at full length human Myt1 expressed in human HEK293 cells assessed as Cdk1 phosphorylation at Try15 at 10 uM after 30 mins by fluorescence polarization immunoassay. A general note: Fluorescence polarisation rises when a labelled molecule tumbles more slowly, as on binding a larger partner.
Test [4] shares this target. As to the kind of experiment: Activity at full length human Myt1 expressed in human HEK293 cells assessed as Cdk1 phosphorylation at Thr14 at 10 uM after 30 mins by fluorescence polarization immunoassay.
For test [5], the target named is T2, Membrane-associated tyrosine- and threonine-specific cdc2-inhibitory kinase (Homo sapiens, UniProt Q99640).
T2 sequence (Q99640 whole entry): T1 sequence (whole entry)
Kind of test: Activity at full length human Myt1 expressed in human HEK293 cells at 10 uM after 30 mins by fluorescence polarization immunoassay.

Test [6] addresses T2, Membrane-associated tyrosine- and threonine-specific cdc2-inhibitory kinase. Kind of test: Competitive inhibition of human Myt1 by TR-FRET assay.

The results in this text go back to ChEMBL document CHEMBL1944550, “In vitro and in silico studies on substrate recognition and acceptance of human PKMYT1, a Cdk1 inhibitory kinase” (Bioorg Med Chem Lett, 2012).

The term EC50 denotes the concentration needed to bring the measured effect to its halfway point. Higher therefore signals weaker potency. As a reminder, the IC50 is the concentration at which inhibition is half-maximal. High values mean weaker potency, low ones greater potency.

Activity calls are given as the source filed them. The calls are words filed in the database; no cut-off is given here. Residues, ends and D or L forms follow the SMILES beside them.

With `CC[C@H](C)[C@H](NC(=O)[C@H](CCCCN)NC(=O)[C@@H](N)CCC(N)=O)C(=O)NCC(=O)N[C@@H](CCC(=O)O)C(=O)NCC(=O)N[C@H](C(=O)N[C@@H](Cc1ccc(OP(=O)(O)O)cc1)C(=O)NCC(=O)N[C@H](C(=O)N[C@H](C(=O)N[C@@H](Cc1ccc(O)cc1)C(=O)N[C@@H](CCCCN)C(=O)N[C@@H](CS)C(=O)O)C(C)C)C(C)C)[C@@H](C)O` (HELM PEPTIDE1{Q.K.I.G.E.G.T.[O=C([C@H](Cc1ccc(OP(=O)(O)O)cc1)N[*:1])[*:2]].G.V.V.Y.K.C}$$$$V2.0), the outcome in test [1], in test [2], in test [3] and in test [4] was inactive. For the same compound, the EC50 in test [5] worked out at 18 nM.
In the case of `CC[C@H](C)[C@H](NC(=O)[C@H](CCCCN)NC(=O)[C@@H](N)CCC(N)=O)C(=O)NCC(=O)N[C@@H](CCC(=O)O)C(=O)NCC(=O)N[C@H](C(=O)N[C@@H](Cc1ccc(O)cc1)C(=O)NCC(=O)N[C@H](C(=O)N[C@H](C(=O)N[C@@H](Cc1ccc(O)cc1)C(=O)N[C@@H](CCCCN)C(=O)N[C@@H](CS)C(=O)O)C(C)C)C(C)C)[C@@H](C)OP(=O)(O)O` (HELM PEPTIDE1{Q.K.I.G.E.G.[C[C@@H](OP(=O)(O)O)[C@H](N[*:1])C(=O)[*:2]].Y.G.V.V.Y.K.C}$$$$V2.0), the result in test [1], in test [2], in test [3] and in test [4] was inactive.
As to `CC[C@H](C)[C@H](NC(=O)[C@H](CCCCN)NC(=O)[C@@H](N)CCC(N)=O)C(=O)NCC(=O)N[C@@H](CCC(=O)O)C(=O)NCC(=O)N[C@H](C(=O)N[C@@H](Cc1ccc(OP(=O)(O)O)cc1)C(=O)NCC(=O)N[C@H](C(=O)N[C@H](C(=O)N[C@@H](Cc1ccc(O)cc1)C(=O)N[C@@H](CCCCN)C(=O)N[C@@H](CS)C(=O)O)C(C)C)C(C)C)[C@@H](C)OP(=O)(O)O` (HELM PEPTIDE1{Q.K.I.G.E.G.[C[C@@H](OP(=O)(O)O)[C@H](N[*:1])C(=O)[*:2]].[O=C([C@H](Cc1ccc(OP(=O)(O)O)cc1)N[*:1])[*:2]].G.V.V.Y.K.C}$$$$V2.0), the outcome in test [1], in test [2], in test [3] and in test [4] was inactive.
In turn, `CCN(CC)CCOc1ccc(Nc2ncc3cc(-c4c(Cl)cccc4Cl)c(=O)n(C)c3n2)cc1` [PD-0166285] yielded a half-inhibitory concentration (IC50) in test [6] of 7 nM.
Turning to H-EKIGEGTYGVVYKC-OH, the result in test [1], in test [2], in test [3] and in test [4] was inactive.
H-QKIGEGTYGVVYKC-OH: the outcome in test [1], in test [2], in test [3] and in test [4] was inactive.
